Paper PMC12166061, “Crystallographic fragment screening reveals ligand hotspots in TRIM21 PRY-SPRY domain” (Communications Chemistry, 2025)
Where two headings read alike, the source gives them in different places.

Columns and labels:
Assay type in all cases: binding
[1] = biological target: T1, His-SUMO-hTRIM21 PRY-SPRY (Homo sapiens, UniProt P19474); test: SPR fragment screening, human TRIM21 PRY-SPRY
T1 construct: Human TRIM21 PRY-SPRY domain (residues V287-I465, UniProt-ID: P19474); made in house; host or cells: E. coli BL21(DE3)
Procedure: (§1) His-mTRIM21 PRYSPRY and His-SUMO-hTRIM21 PRY-SPRY were immobilized onto flow channels (FC) FC2, FC3, and FC4 of a Series S sensor chip NTA (Cytiva). […] Proteins (10–20 µg mL^−1 in HBS-P+) were injected at 10 µL min^−1 to achieve response levels of 3500–4300 RU for mTRIM21 and 3600–4000 RU for hTRIM21. Flow channel 1 (FC1) was used as a reference surface. Surface deactivation and nickel stripping were achieved using 1 M ethanolamine and 350 mM ethylenediaminetetraacetic acid (EDTA), respectively.
(§2) Fragment screening was conducted by injecting 500 µM fragments diluted in running buffer (HBS-P+ with 1 mM TCEP and 2% (v/v) dimethyl sulfoxide (DMSO)) over all flow-channels for 30 s at 30 µL/min^−1. To account for surface drift, 50 µM of a control compound (Suramin) was injected every 15 fragment injections, and blank injections were performed every 5 fragments. Responses were analyzed by blank subtraction, reference subtraction (FC1), solvent correction, molecular weight adjustment, and drift correction using Biacore T200 Evaluation Software v3.2.1. The binding threshold for fragment hits was set based on the Suramin-binding response level.

[2] = biological target: T2, human TRIM21 PRY-SPRY domain (Homo sapiens, UniProt P19474); test: Differential scanning fluorimetry (DSF, ΔTm), human TRIM21 PRY-SPRY domain
T2 construct: Human TRIM21 PRY-SPRY domain (residues V287-I465, UniProt-ID: P19474); His6 (N, cleaved yes); SUMO (N, cleaved yes); made in house; host or cells: E. coli BL21(DE3)
Procedure: (§3) Briefly, recombinant murine and human TRIM21 PRY-SPRY domain at a concentration of 8 μM were mixed with 2 mM compound in their respective SEC buffer. SYPRO Orange (5000×, Invitrogen) was added as a fluorescence probe (1 µl per mL). Subsequently, temperature-dependent protein unfolding profiles were measured using the QuantStudio™ 5 realtime PCR machine (Thermo Fisher). Excitation and emission filters were set to 465 nm and 590 nm, respectively. The temperature was raised with a step rate of 3 °C per minute. Data points were analysed with the internal software (Thermal Shift SoftwareTM Version 1.4, Thermo Fisher) using the Boltzmann equation to determine the inflection point of the transition curve.

[3] = biological target: T3, murine TRIM21 PRY-SPRY domain (Mus musculus, UniProt Q62191); test: Differential scanning fluorimetry (DSF, ΔTm), mouse TRIM21 PRY-SPRY domain
T3 construct: mouse TRIM21 PRY-SPRY domain (residues V291-M470, UniProt-ID: Q62191); made in house; host or cells: E. coli BL21(DE3)
T3 sequence (Q62191 291-470): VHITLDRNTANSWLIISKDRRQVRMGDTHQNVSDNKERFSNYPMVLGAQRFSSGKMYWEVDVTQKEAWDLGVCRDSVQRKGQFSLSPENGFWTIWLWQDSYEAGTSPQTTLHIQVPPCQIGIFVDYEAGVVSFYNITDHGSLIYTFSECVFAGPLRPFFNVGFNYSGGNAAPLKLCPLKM
Procedure: as §3

His-mTRIM21 PRYSPRY = biological target: T4, His-mTRIM21 PRYSPRY (Mus musculus, UniProt Q62191); test: SPR fragment screening and dose response, mouse TRIM21 PRY-SPRY
T4 construct: mouse TRIM21 PRY-SPRY domain (residues V291-M470, UniProt-ID: Q62191); made in house; host or cells: E. coli BL21(DE3)
T4 sequence (Q62191 291-470): T3 sequence (Q62191 291-470)
Procedure: as §1, §2
The data was solvent-corrected, reference-subtracted (FC1), and blank-subtracted using the T200 Evaluation Software v3.2.1. Sensorgrams were subsequently replotted using Graphpad v.9 software.

[4] = single dose 500 µM fragment, relative response, suramin reference threshold 100 relative RU

T2 sequence (P19474 287-465): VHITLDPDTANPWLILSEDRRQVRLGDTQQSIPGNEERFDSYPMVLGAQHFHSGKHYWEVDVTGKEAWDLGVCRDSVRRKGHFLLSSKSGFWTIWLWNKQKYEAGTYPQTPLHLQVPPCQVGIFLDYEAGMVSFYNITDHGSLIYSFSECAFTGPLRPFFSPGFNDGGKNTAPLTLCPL
T1 sequence (P19474 287-465): as above

Structure (SMILES)	SPR hTRIM21 (Response) [1]	Tm-Shift hTRIM21 [2]	Tm-shift mTRIM21 [3]	SPR mTRIM21 (Response) (His-mTRIM21 PRYSPRY)	SPR hTRIM21 (Response) [1, 4]	Tm-Shift hTRIM21 ([2]; 2 mM compound, 8 μM protein)	Tm-shift mTRIM21 ([3]; 2 mM compound, 8 μM protein)	SPR mTRIM21 (Response) (His-mTRIM21 PRYSPRY; [4])
CNS(=O)(=O)Cc1cc(C)on1 [Fragment Z763030030]	44.17	-0.1 °C	-0.2 °C	42.23				
CC1CN(C(=O)c2cnsn2)C(C)CO1 (stereo not shown) [Fragment Z768399682]					20.05	0 °C	-0.3 °C	24.2
CCOC(=O)CN1CCS(=O)(=O)CC1 [Fragment Z793778804]					29.17	0.1 °C	0 °C	30.52
O=C(O)COCc1ccccc1 [Fragment Z993967070]	56.18	0 °C	-0.3 °C	63.84				
CN1CCOC(CNc2nccs2)C1 (stereo not shown) [Fragment Z1002247062]					20.86	-0.2 °C	-0.1 °C	105
NS(=O)(=O)c1ccccc1OC(F)F [Fragment Z1003146540]					38.84	0.5 °C	-0.1 °C	35.49
Cc1cc(Cn2nc(C)ccc2=O)on1 [Fragment Z1079512010]					45.75	-0.1 °C	-0.3 °C	50.4
CCc1nc(Cn2ccccc2=O)no1 [Fragment Z1162778919]					44.97	-0.1 °C	-0.2 °C	48.28
CN1CCC(Oc2cccc(F)c2)C1=O (stereo not shown) [Fragment Z1217960891]					55.59	-0.4 °C	-0.4 °C	74.94
CN(C)C(=O)c1ccc2c(c1)CCCN2 [Fragment Z1222331430]	70.74	-0.2 °C	-0.2 °C	51.36				
CN(C)c1ccncc1 [Fragment Z1245793018]					47.83	0 °C	0.1 °C	131.3
CCC(NC)c1ccncc1 (stereo not shown) [Fragment Z1250132788]					50.74	-0.1 °C	0 °C	53.11
Cl.O=C(c1cn[nH]c1)N1CCCC1 [Fragment Z1266933824]	193.6	-0.1 °C	-0.3 °C	127.7				
CCc1ncc(CNC)s1 [Fragment Z1267773633]					45.3	-0.4 °C	-0.4 °C	58.5
c1cc(NCC2CCCO2)ccn1 (stereo not shown) [Fragment Z1267882044]					39.64	-0.1 °C	0 °C	85.46
CC(=O)N1CCCC2(CCCCCC2)C1 [Fragment Z1275599911]					30.21	-0.9 °C	-1.3 °C	32.73
CC#CCN(C)C1CCS(=O)(=O)CC1 [Fragment Z1318110042]					20.83	0 °C	0.1 °C	68.46
COC1CN(S(=O)(=O)N2CCCC2)C1 [Fragment Z1343518214]	34.32	0.2 °C	-0.1 °C	38.32				
CC(=O)N1Cc2ccc(N)cc2C1 [Fragment Z1354416068]					107.4	0.1 °C	0 °C	104.9

Structure (SMILES)	SPR hTRIM21 (Response) [1]	Tm-Shift hTRIM21 [2]	Tm-shift mTRIM21 [3]	SPR mTRIM21 (Response) (His-mTRIM21 PRYSPRY)	SPR hTRIM21 (Response) [1, 4]	Tm-Shift hTRIM21 ([2]; 2 mM compound, 8 μM protein)	Tm-shift mTRIM21 ([3]; 2 mM compound, 8 μM protein)	SPR mTRIM21 (Response) (His-mTRIM21 PRYSPRY; [4])
c1cnc(N2CCC3(CCOC3)C2)cn1 (stereo not shown) [Fragment Z1401276297]					640.3	0.6 °C	0.2 °C	374.2
CC(CS(N)(=O)=O)c1ccccc1 (stereo not shown) [Fragment Z1407673036]					47.04	-0.4 °C	-0.3 °C	43.51
CS(=O)(=O)NC1CCOC2(CCCC2)C1 (stereo not shown) [Fragment Z1446981563]					28.35	-0.1 °C	-0.4 °C	27.71
CC(=O)NC1CNc2ccccc2C1 (stereo not shown) [Fragment Z1492796719]					55.11	-0.1 °C	-0.1 °C	54.86
CCc1csc(-c2c[nH]cn2)n1 [Fragment Z1530301542]					45.06	0.1 °C	-0.1 °C	39.06
Cc1c(Cl)cccc1NC(=O)[C@@H]1CCCO1 [Fragment Z1545312521]					24.5	-0.7 °C	-0.9 °C	31.58
O=S1(=O)CCN(Cc2ccco2)CC1 [Fragment Z1568344634]					40.64	0 °C	-0.2 °C	60.76
Cc1nsc(N2CCCNCC2)n1 [Fragment Z1578665941]					59.22	0.1 °C	-0.1 °C	154
CC(=O)Nc1cc2c(cc1C)OCO2 [Fragment Z1635496816]					148.8	0.1 °C	0 °C	140.9
CNC(=O)C1CNCCO1 (stereo not shown) [Fragment Z1636723439]					46.15	0.1 °C	0.4 °C	142.5
OC1CN(C(c2ccccc2)c2ccccc2)C1 [Fragment Z1696844792]					122.6	-0.8 °C	-0.5 °C	107.8
CS(=O)(=O)NCC1CCNCC1 [Fragment Z1741966151]	18.48	0.1 °C	0.2 °C	29.2				
CN(C)c1noc(C2CCNCC2)n1 [Fragment Z1742054999]	41.66	-0.2 °C	0 °C	84.81				
COC1CN(Cc2cncs2)CCC1C (stereo not shown) [Fragment Z1787761777]					-50.75	-0.3 °C	-1.6 °C	-42.9
Cc1cc(N2CCCCC2)nc(CO)n1 [Fragment Z1980894300]					66.59	0 °C	-0.2 °C	77.01
CN(C)C(=O)N1CCOCC12CCOC2 (stereo not shown) [Fragment Z1998104358]	21.66	0.1 °C	0 °C	24.94				
CC(O)c1cnn(C2CCCC2)c1 (stereo not shown) [Fragment Z2004563941]					39.09	0 °C	-0.2 °C	41.62
CC(=O)N1C[C@H]2CC[C@H]1c1ccccc12 [Fragment Z2017861827]	47.45	-0.2 °C	-0.7 °C	37.47				
